Earlier results on one molecule are cited in patent US9095514B2, “Pharmaceutical composition” (SUN PHARMA ADVANCED RESEARCH COMPANY LTD., priority 2009, dated 2015).

On to `CC(C)C[C@H](NC(=O)[C@H](Cc1ccccc1)NC(=O)c1cnccn1)B(O)O` [Bortezomib, N-(2-pyrazine) carbonyl-L-phenylalanine-L-leucine boronic acid], for which the “stability in certain solvents” value (Sara Wu et al J. Pharm. Sci 89) is “quite unstable”. The “solubility of solid bortezomib” value (at 1 mg/ml in 0.9% w/v of sodium chloride) is on record as “not soluble”. Further, under “stored at 2° C.-8° C., U.S. Pat. No. 6,713,446”, the “not stable for longer than” value is 3-6 months. The “stable for (HPLC purity>97%)” value (stored at −2° C. to −20° C., U.S. Pat. No. 6,713,446) is “more than 2 years”.
